Laboratory results: patent US10336762B2 (priority 2017, dated 2019)

Legend:
TNFα = test: cells; format: cell-based, human; details: Homo sapiens, Monocyte, LPS-stimulated human monocytes, TNFα content; read-out: EC50 TNF
IRAK4 enzyme = IRAK4 enzyme (Homo sapiens (Human), UniProt Q9NWZ3); test: biochemical; format: biochemical; details: IRAK4 enzyme, TR-FRET (HTRF), 500 μM ATP
Chain of IRAK4 enzyme (Q9NWZ3 whole entry): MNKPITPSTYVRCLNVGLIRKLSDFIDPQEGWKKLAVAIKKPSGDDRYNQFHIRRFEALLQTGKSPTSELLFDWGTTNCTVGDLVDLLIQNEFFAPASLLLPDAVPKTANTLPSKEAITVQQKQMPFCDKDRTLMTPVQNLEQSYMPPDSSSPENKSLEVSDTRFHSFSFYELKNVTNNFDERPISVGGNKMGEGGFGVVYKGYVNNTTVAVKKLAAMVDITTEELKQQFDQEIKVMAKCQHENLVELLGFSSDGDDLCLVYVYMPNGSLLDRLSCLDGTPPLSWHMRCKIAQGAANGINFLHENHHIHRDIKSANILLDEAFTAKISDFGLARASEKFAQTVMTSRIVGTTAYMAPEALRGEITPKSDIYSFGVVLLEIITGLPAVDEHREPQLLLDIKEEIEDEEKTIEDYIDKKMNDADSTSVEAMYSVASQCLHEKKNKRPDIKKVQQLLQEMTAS

Structure (SMILES) | EC50 (TNFα) | IC50 (IRAK4 enzyme)
CNC(=O)c1cnc(-c2ccc3cc(C#N)cnn23)cc1NC12CCC(NC(C)=O)(CC1)CC2 [Example 482, 4-((4-acetamido-bicyclo[2.2.2]octan-1-yl)amino)-6-(3-cyano-pyrrolo[1,2-b]pyridazin-7-yl)-N-methylnicotinamide] | 48 nM | 1 nM
CNC(=O)c1cnc(-c2ccc3cc(C#N)cnn23)cc1NC12CCC(C(=O)N3CC(F)(F)C3)(CC1)CC2 [Example 483, 6-(3-cyanopyrrolo[1,2-b]pyridazin-7-yl)-4-((4-(3,3-difluoroazetidine-1-carbonyl)bicyclo[2.2.2]octan-1-yl)amino)-N-methylnicotinamide] | 64 nM | 1 nM
CNC(=O)c1cnc(-c2ccc3cc(C#N)cnn23)cc1NC12CCC(C(=O)N3CCC3)(CC1)CC2 [Example 484, 4-((4-(azetidine-1-carbonyl)bicyclo[2.2.2]octan-1-yl)amino)-6-(3-cyanopyrrolo[1,2-b]pyridazin-7-yl)-N-methyl-nicotinamide] | 63 nM | 1 nM
CNC(=O)c1cnc(-c2ccc3cc(C#N)cnn23)cc1NC12CCC(C(=O)NC)(CC1)CC2 [Example 485, 6-(3-cyanopyrrolo[1,2-b]pyridazin-7-yl)-N-methyl-4-((4-(methyl-carbamoyl)bicyclo[2.2.2]octan-1-yl)amino) nicotinamide] | 39 nM | 1 nM
CNC(=O)c1cnc(-c2ccc3cc(C#N)cnn23)cc1NC12CCC(NC(=O)OC)(CC1)CC2 [Example 486, methyl (4-((2-(3-cyano-pyrrolo[1,2-b]pyridazin-7-yl)-5-(methylcarbamoyl)pyridin-4-yl)amino)bicyclo[2.2.2]octan-1-yl)carbamate] | 64 nM | 1 nM
COC(=O)NC12CC(Nc3cc(-c4ccc5cc(C#N)cnn45)ncc3C(=O)NCC#N)(C1)C2 [Example 487, methyl (3-((5-((cyanomethyl)carbamoyl)-2-(3-cyanopyrrolo[1,2-b]pyridazin-7-yl)pyridin-4-yl)amino)bicyclo[1.1.1]pentan-1-yl)carbamate] | 51 nM | < 1 nM
CNC(=O)c1cnc(-c2ccc3cc(C#N)cnn23)cc1NC12CC(NC(=O)OC)(C1)C2 [Example 488, methyl (3-((2-(3-cyano-pyrrolo[1,2-b]pyridazin-7-yl)-5-(methylcarbamoyl)pyridin-4-yl)amino)bicyclo[1.1.1]pentan-1-yl)carbamate] | 71 nM | 1 nM
CNC(=O)c1cnc(-c2ccc3cc(C#N)cnn23)cc1NC12CC(C1)C2 [Example 489, 4-(bicyclo[1.1.1]pentan-1-ylamino)-6-(3-cyano-pyrrolo[1,2-b]pyridazin-7-yl)-N-methylnicotinamide] | 121 nM | 2 nM
CC(C)Nc1cc(-c2ccc3cc(C#N)cnn23)ncc1C(=O)Nc1cncc(N)c1 [Example 490] | 220 nM | 7 nM
CC(=O)Nc1cncc(NC(=O)c2cnc(-c3ccc4cc(C#N)cnn34)cc2NC(C)C)c1 [Example 491, N-(5-acetamidopyridin-3-yl)-6-(3-cyanopyrrolo[1,2-b]pyridazin-7-yl)-4-(isopropylamino) nicotinamide] | 219 nM | 19 nM
CC(=O)NC12CC(Nc3cc(-c4ccc5cc(C#N)cnn45)ncc3C(=O)NC3(C#N)CC3)(C1)C2 [Example 492, 4-((3-acetamido-bicyclo[1.1.1]pentan-1-yl)amino)-N-(1-cyano-cyclopropyl)-6-(3-cyanopyrrolo[1,2-b]pyridazin-7-yl)nicotinamide] | 101 nM | 1 nM
CC(=O)Nc1nc(NC(=O)c2cnc(-c3ccc4cc(C#N)cnn34)cc2NC(C)C)cs1 [Example 493, N-(2-acetamidothiazol-4-yl)-6-(3-cyanopyrrolo[1,2-b]pyridazin-7-yl)-4-(isopropylamino)nicotinamide] | > 10000 nM | 12 nM
CC(=O)NC12CC(Nc3cc(-c4ccc5cc(C#N)cnn45)ncc3C(=O)NC[C@@H](F)C(C)(C)F)(C1)C2 [Example 494, (R)-4-((3-acetamido-bicyclo[1.1.1]pentan-1-yl)amino)-6-(3-cyano-pyrrolo[1,2-b]pyridazin-7-yl)-N-(2,3-difluoro-3-methylbutyl)nicotinamide] | 44 nM | < 1 nM
COC(C)(C)[C@H](F)CNC(=O)c1cnc(-c2ccc3cc(C#N)cnn23)cc1NC12CC(NC(C)=O)(C1)C2 [Example 495, (R)-4-((3-acetamidobicyclo[1.1.1]pentan-1-yl)amino)-6-(3-cyanopyrrolo[1,2-b]pyridazin-7-yl)-N-(2-fluoro-3-methoxy-3-methylbutyl)nicotinamide] | 40 nM | < 1 nM
CC(=O)NC12CC(Nc3cc(-c4ccc5cc(C#N)cnn45)ncc3C(=O)NCC#N)(C1)C2 [Example 496, 4-((3-acetamidobicyclo[1.1.1]pentan-1-yl)amino)-N-(cyanomethyl)-6-(3-cyanopyrrolo[1,2-b]pyridazin-7-yl)nicotinamide] | 42 nM | < 1 nM
[2H]C([2H])([2H])NC(=O)c1cnc(-c2ccc3cc(C#N)cnn23)cc1NC12CC(NC(C)=O)(C1)C2 [Example 497, 4-((3-acetamidobicyclo[1.1.1]pentan-1-yl)amino)-6-(3-cyanopyrrolo[1,2-b]pyridazin-7-yl)-N-(methyl-d3)nicotinamide] | 55 nM | 1 nM
CNC(=O)c1cnc(-c2ccc3cc(C#N)cnn23)cc1NC12CC(NC(C)=O)(C1)C2 [Example 498, 4-((3-acetamidobicyclo[1.1.1]pentan-1-yl)amino)-6-(3-cyanopyrrolo[1,2-b]pyridazin-7-yl)-N-methyl-nicotinamide] | 43 nM | 1 nM
CC(=O)NC12CCC(Nc3cc(-c4ccc5cc(C#N)cnn45)ncc3C(=O)NC[C@@H](F)C(C)(C)O)(CC1)C2 [Example 499, (R)-4-((4-acetamidobicyclo[2.2.1]heptan-1-yl)amino)-6-(3-cyanopyrrolo[1,2-b]pyridazin-7-yl)-N-(2-fluoro-3-hydroxy-3-methylbutyl)nicotinamide] | 20 nM | 1 nM
COC(=O)NC12CCC(Nc3cc(-c4ccc5cc(C#N)cnn45)ncc3C(=O)NC[C@@H](F)C(C)(C)O)(CC1)C2 [Example 500, (R)-methyl (4-((2-(3-cyano-pyrrolo[1,2-b]pyridazin-7-yl)-5-((2-fluoro-3-hydroxy-3-methylbutyl)carbamoyl)pyridin-4-yl)amino)bicyclo[2.2.1]heptan-1-yl)carbamate] | 13 nM | 1 nM
CC(=O)O[C@@H]1CCC[C@H](Nc2cc(-c3ccc4cc(C#N)cnn34)ncc2C(=O)NC[C@@H](F)C(C)(C)O)C1 [Example 501, (1R,3S)-3-((2-(3-cyanopyrrolo[1,2-b]pyridazin-7-yl)-5-(((R)-2-fluoro-3-hydroxy-3-methylbutyl)carbamoyl)pyridin-4-yl)amino)cyclohexyl acetate] | 63 nM | 2 nM
N#Cc1cnn2c(-c3cc(Nc4cccnc4)c(C(=O)N[C@H]4CC[C@H](NC(=O)C5CC5)CC4)cn3)ccc2c1 [Example 502, 6-(3-cyanopyrrolo[1,2-b]pyridazin-7-yl)-N-((1r,4r)-4-(cyclopropane-carboxamido)cyclohexyl)-4-(pyridin-3-ylamino) nicotinamide] | 93 nM | 1 nM
CC(C)(O)[C@H](F)CNC(=O)c1cnc(-c2ccc3cc(C#N)cnn23)cc1NC12CCC(F)(CC1)CC2 [Example 503, (R)-6-(3-cyanopyrrolo[1,2-b]pyridazin-7-yl)-N-(2-fluoro-3-hydroxy-3-methylbutyl)-4-((4-fluorobicyclo[2.2.2]octan-1-yl)amino)nicotinamide] | 46 nM | 2 nM
CC(C)(O)[C@H](F)CNC(=O)c1cnc(-c2ccc3cc(C#N)cnn23)cc1N[C@@]12CC[C@@H](C1)[C@@H](O)C2 [Example 504, 6-(3-cyanopyrrolo[1,2-b]pyridazin-7-yl)-N-((R)-2-fluoro-3-hydroxy-3-methylbutyl)-4-(((1S,3S,4S)-3-hydroxybicyclo[2.2.1]heptan-1-yl)amino) nicotinamide] | 14 nM | < 1 nM
C=CC(=O)N[C@H]1CC[C@H](NC(=O)c2cnc(-c3ccc4cc(C#N)cnn34)cc2NC2CCCC(O)C2)CC1 (stereo partly drawn) [Example 505, N-((1r,4S)-4-acrylamidocyclohexyl)-6-(3-cyanopyrrolo[1,2-b]pyridazin-7-yl)-4-(((1S,3R)-3-hydroxycyclohexyl)amino)nicotinamide] | 139 nM | 1 nM
N#Cc1cnn2c(-c3cc(NC45CCC(O)(CC4)CC5)c(C(=O)NC4CCC(NC(=O)C5CC5)CC4)cn3)ccc2c1 (centres unmarked) [Example 506, 6-(3-cyanopyrrolo[1,2-b]pyridazin-7-yl)-N-((1r,4r)-4-(cyclopropane-carboxamido)cyclohexyl)-4-((4-hydroxybicyclo[2.2.2]octan-1-yl)amino) nicotinamide] | 50 nM | < 1 nM
COC(=O)NC12CC(Nc3cc(-c4ccc5cc(C#N)cnn45)ncc3C(=O)NC[C@@H](F)C(C)(C)O)(C1)C2 [Example 507, (R)-methyl (3-((2-(3-cyanopyrrolo[1,2-b]pyridazin-7-yl)-5-((2-fluoro-3-hydroxy-3-methylbutyl)carbamoyl)pyridin-4-yl)amino)bicyclo[1.1.1]pentan-1-yl)carbamate] | 27 nM | < 1 nM
CC(=O)NC12CC(Nc3cc(-c4ccc5cc(C#N)cnn45)ncc3C(=O)NC[C@@H](F)C(C)(C)O)(C1)C2 [Example 508, (R)-4-((3-acetamidobicyclo[1.1.1]pentan-1-yl)amino)-6-(3-cyanopyrrolo[1,2-b]pyridazin-7-yl)-N-(2-fluoro-3-hydroxy-3-methyl-butyl)nicotinamide] | 22 nM | < 1 nM
CC(C)(O)[C@H](F)CNC(=O)c1cnc(-c2ccc3cc(C#N)cnn23)cc1NC1CCCC(F)C1 (stereo partly drawn) [Example 509, 6-(3-cyanopyrrolo[1,2-b]pyridazin-7-yl)-N-((R)-2-fluoro-3-hydroxy-3-methylbutyl)-4-(((1S)-3-fluorocyclohexyl)amino) nicotinamide] | 66 nM | < 1 nM
